The data set in a line: logP determination by reversed-phase HPLC (EEC Directive 79/831 Annex V.A8). The source says:
Die Messung der logP Werte erfolgte gemäß EEC Directive 79/831 Annex V.A8 durch HPLC (High Performance Liquid Chromatography) an reverser Phase Säulen (C 18), mit nachfolgenden Methoden: • ^[a] Die Bestimmung erfolgt bei pH 2.3 mit 0,1% wässriger Phosphorsäure und Acetonitril als Eluenten (linearer Gradient von 10 bis 95% Acetonitril). • ^[b] Die Bestimmung erfolgt mit LC-MS bei pH 2,7 mit 0,1 % wässriger Ameisensäure und Acetonitril als Eluenten (linearer Gradient von 10% bis 95% Acetonitril). • ^[c] Die Bestimmung erfolgt mit LC-MS bei pH 7,8 mit 0,001 M wässriger Ammoniumhydrogencarbonat-Lösung und Acetonitril als Eluenten (linearer Gradient von 10 % bis 95 % Acetonitril).
Die Eichung erfolgt mit unverzweigten Alkan-2-onen (mit 3 bis 16 Kohlenstoffatomen), deren logP-Werte bekannt sind (Bestimmung der logP-Werte anhand der Retentionszeiten durch lineare Interpolation zwischen zwei aufeinander folgenden Alkanonen). Die lambda-maX-Werte wurden an Hand der UV-Spektren von 200 bis 400 nm in den Absorptionsmaxima ermittelt.

Setting [1] is: method [a]: pH 2.3, 0,1% aqueous phosphoric acid and acetonitrile, linear gradient 10 to 95% acetonitrile.
Setting [2] is: method [c]: LC-MS, pH 7,8, 0,001 M aqueous ammonium hydrogen carbonate and acetonitrile, linear gradient 10 % to 95 % acetonitrile.
Where [3] appears, read: aqueous ammonium hydrogen carbonate/acetonitrile, pH 7.8.
[4] abbreviates: 0.1% aqueous phosphoric acid/acetonitrile, pH 2.3.

The values that follow come from patent publication EP2033515A1, “Method for improved utilisation of the production potential of transgenic plants” (Bayer CropScience AG, priority 2007, dated 2009).

For `C[C@@H](CS(C)(=O)=O)NC(=O)c1c(I)cccc1C(=O)Nc1ccc(C(C(F)F)C(F)(F)F)cc1Cl` (stereo partly shown) [compound 42], the log p by setting is: under setting [1], 2,69; under setting [2], 2,72. Regarding `CSC[C@H](C)NC(=O)c1c(Cl)cccc1C(=O)Nc1ccc(C(F)(F)C(F)(F)F)c(F)c1C` [compound 11], under “method [b]: LC-MS, pH 2,7, 0,1 % aqueous formic acid and acetonitrile, linear gradient 10% to 95% acetonitrile”, the log p is 3,94^[b]. In the case of `CSC[C@H](C)NC(=O)c1c(Br)cccc1C(=O)Nc1ccc(C(F)(C(F)(F)F)C(F)(F)F)c(F)c1C` [compound 17], the log p under setting [1] was 4,31^[a].

Take `Cc1c(NC(=O)c2cccc(Br)c2C(=O)N[C@@H](C)CS(C)(=O)=O)ccc(C(F)(F)C(F)(F)F)c1F` [compound 16]: the log p under setting [1] was 2,86^[a]. The same measure, in the same setting: the value for `Cc1c(NC(=O)c2cccc(I)c2C(=O)N[C@@H](C)C[S+](C)[O-])ccc(C(F)(C(F)(F)F)C(F)(F)F)c1F` (stereo partly shown) [compound 8] was 2,78^[a]. In the case of `Cc1cc(C(C(F)(F)F)C(F)(F)F)c(F)cc1NC(=O)c1cccc(Cl)c1C(=O)N[C@@H](C)C[S+](C)[O-]` (stereo partly shown) [compound 52], the log p under setting [1] is 2,58 and the log p under setting [2] was 2,51. Consider `CC[S+]([O-])C[C@H](C)NC(=O)c1c(I)cccc1C(=O)Nc1ccc(C(F)(C(F)(F)F)C(F)(F)F)c(F)c1C` (stereo partly shown) [compound 9], for which the log p under setting [1] was 2,97^[a].

In the case of `Cc1c(NC(=O)c2cccc(I)c2C(=O)N[C@@H](C)CS(C)(=O)=O)ccc(C(F)(C(F)(F)F)C(F)(F)F)c1F` [compound 27], the log p under setting [1] was 3,27^[a].

Consider `CCSC[C@H](C)NC(=O)c1c(I)cccc1C(=O)Nc1ccc(C(C(F)F)C(F)(F)F)cc1Br` (stereo partly shown) [compound 39], for which the chromatographic logP (as a rule, lipophilicity estimated from chromatographic retention) under setting [3] turned out to be 3.8. For the same compound, under setting [1], the log p is 3,78. As to `CCS(=O)(=O)C[C@H](C)NC(=O)c1c(Cl)cccc1C(=O)Nc1ccc(C(F)(F)C(F)(F)F)c(F)c1C` [compound 14], the log p under setting [1] is 3,01^[a]. Still for that read-out and setting: to `CCS(=O)(=O)C[C@H](C)NC(=O)c1c(Cl)cccc1C(=O)Nc1ccc(C(F)(F)C(F)(F)F)c(Cl)c1C` [compound 12] belongs 3,14^[a]; to `CSC[C@H](C)NC(=O)c1c(Br)cccc1C(=O)Nc1ccc(C(F)(F)C(F)(F)F)c(F)c1C` [compound 15], 3,93^[a]. As for `CCS(=O)(=O)C[C@H](C)NC(=O)c1c(I)cccc1C(=O)Nc1ccc(C(C(F)F)C(F)(F)F)cc1F` (stereo partly shown) [compound 48], the log p by setting is: under setting [1], 2,65; under setting [2], 2,69. In the case of `CCSC[C@H](C)NC(=O)c1c(I)cccc1C(=O)Nc1ccc(C(F)(C(F)(F)F)C(F)(F)Br)cc1C` (stereo partly shown) [compound 32], under setting [1], the log p was 4,68. Regarding `CCSC[C@H](C)NC(=O)c1c(I)cccc1C(=O)Nc1ccc(C(C(F)F)C(F)(F)F)cc1Cl` (stereo partly shown) [compound 38], the log p is reported as 3,76 under setting [1] and 3,79 under setting [2]. For `CSC[C@H](C)NC(=O)c1c(I)cccc1C(=O)Nc1ccc(C(F)(F)C(F)(F)F)c(Cl)c1C` [compound 26], under setting [1], the log p was 4,2^[a]. Take `Cc1c(NC(=O)c2cccc(Cl)c2C(=O)N[C@@H](C)CS(C)(=O)=O)ccc(C(F)(F)C(F)(F)F)c1F` [compound 13]: the log p under setting [1] was 2,82^[a].

As to `CCSC[C@H](C)NC(=O)c1c(I)cccc1C(=O)Nc1ccc(C(C(F)F)C(F)(F)F)cc1C` (stereo partly shown) [compound 35], the log p reads like this: under setting [1], 3,63; under setting [2], 3,62. As to `CSC[C@H](C)NC(=O)c1c(I)cccc1C(=O)Nc1ccc(C(F)(C(F)(F)F)C(F)(F)F)c(F)c1C` [compound 25], the log p under setting [1] is 4,41^[a].

For the compound `CCSC[C@H](C)NC(=O)c1c(I)cccc1C(=O)Nc1ccc(C(F)(C(F)(F)F)C(F)(F)F)c(F)c1C` [compound 19], the log p under setting [1] was 4,71^[a]. For the compound `CCS(=O)(=O)C[C@H](C)NC(=O)c1c(Br)cccc1C(=O)Nc1ccc(C(F)(F)C(F)(F)F)c(Cl)c1C` [compound 22], the log p under setting [1] is 3,19^[a].

Take `Cc1c(NC(=O)c2cccc(Cl)c2C(=O)N[C@@H](C)C[S+](C)[O-])ccc(C(C(F)(F)F)C(F)(F)F)c1F` (stereo partly shown) [compound 51]: the log p under setting [2] is 2,41. The chromatographic logP (pH 2.3) amounted to 2.5. For the compound `Cc1cc(C(F)(C(F)(F)F)C(F)(F)F)ccc1NC(=O)c1cccc(I)c1C(=O)N[C@@H](C)CS(C)(=O)=O` [compound 1], the chromatographic logP under setting [3] came out at 3.2. Further, under setting [1], the log p is given as 3,18. As to `Cc1cc(C(C(F)(F)F)C(F)(F)F)c(F)cc1NC(=O)c1cccc(Br)c1C(=O)N[C@@H](C)C[S+](C)[O-]` (stereo partly shown) [compound 53], the log p is, setting by setting: under setting [1], 2,58; under setting [2], 2,51.

On to `CSC[C@H](C)NC(=O)c1c(I)cccc1C(=O)Nc1ccc(C(C(F)F)C(F)(F)F)cc1Br` (stereo partly shown) [compound 37], for which the log p reads like this: under setting [1], 3,51; under setting [2], 3,54. In turn, `CCS(=O)(=O)C[C@H](C)NC(=O)c1c(Br)cccc1C(=O)Nc1ccc(C(F)(C(F)F)C(F)(F)F)cc1Br` (stereo partly shown) [compound 30] returned a chromatographic logP under setting [4] of 3.06.

With `CSC[C@H](C)NC(=O)c1c(Br)cccc1C(=O)Nc1ccc(C(F)(C(F)F)C(F)(F)F)cc1Br` (stereo partly shown) [compound 29], under setting [1], the log p was 3,81^[a]. Regarding `C[C@@H](CS(C)(=O)=O)NC(=O)c1c(I)cccc1C(=O)Nc1ccc(C(C(F)F)C(F)(F)F)cc1F` (stereo partly shown) [compound 45], under setting [2], the log p was 2,54. This compound registered a chromatographic logP (pH 2.3) of 2.5.

Regarding `CCS(=O)(=O)C[C@H](C)NC(=O)c1c(I)cccc1C(=O)Nc1ccc(C(F)(C(F)F)C(F)(F)F)cc1Cl` (stereo partly shown) [compound 41], the log p was 3,12 under setting [1] and 3,18 under setting [2]. Regarding `Cc1c(NC(=O)c2cccc(I)c2C(=O)N[C@@H](C)CS(C)(=O)=O)ccc(C(F)(F)C(F)(F)F)c1F` [compound 24], the log p under setting [1] is 2,97^[a]. For `Cc1c(NC(=O)c2cccc(I)c2C(=O)N[C@@H](C)C[S+](C)[O-])ccc(C(F)(F)C(F)(F)F)c1F` (stereo partly shown) [compound 31], the log p under setting [1] is 2,5^[a]. Take `CCSC[C@H](C)NC(=O)c1c(I)cccc1C(=O)Nc1ccc(C(C(F)F)C(F)(F)F)cc1F` (stereo partly shown) [compound 40]: the log p runs as follows: under setting [1], 3,57^[a] 3,57^[c]; under setting [2], 3,57^[a] 3,57^[c].

As for `CCSC[C@H](C)NC(=O)c1c(I)cccc1C(=O)Nc1ccc(C(F)(C(F)F)C(F)(F)F)cc1C` (stereo partly shown) [compound 33], the log p runs as follows: under setting [1], 3,96^[a] 3,96^[c]; under setting [2], 3,96^[a] 3,96^[c]. Consider `C[C@@H](CS(C)(=O)=O)NC(=O)c1c(I)cccc1C(=O)Nc1ccc(C(C(F)F)C(F)(F)F)cc1Br` (stereo partly shown) [compound 43], for which the log p is 2,71 under setting [1] and 2,76 under setting [2]. `CCSC[C@H](C)NC(=O)c1c(I)cccc1C(=O)Nc1ccc(C(F)(C(F)F)C(F)(F)F)cc1Cl` (stereo partly shown) [compound 34] gave a chromatographic logP under setting [4] of 4.2 and a chromatographic logP under setting [3] of 4.2.

`CCS(=O)(=O)C[C@H](C)NC(=O)c1c(I)cccc1C(=O)Nc1ccc(C(F)(C(F)F)C(F)(F)F)cc1F` (stereo partly shown) [compound 47]: the log p is 2,89 under setting [1] and 2,94 under setting [2]. In the case of `CSC[C@H](C)NC(=O)c1c(I)cccc1C(=O)Nc1ccc(C(F)(F)C(F)(F)F)c(F)c1C` [compound 23], the log p under setting [1] is 4,04^[a]. Turning to `C[C@@H](CS(C)(=O)=O)NC(=O)c1c(I)cccc1C(=O)Nc1ccc(C(F)(C(F)F)C(F)(F)F)cc1F` (stereo partly shown) [compound 44], the log p under setting [1] is 2,72 and the log p under setting [2] is reported as 2,76. For the compound `Cc1cc(C(F)(C(F)F)C(F)(F)F)ccc1NC(=O)c1cccc(Cl)c1C(=O)N[C@@H](C)CS(C)(=O)=O` (stereo partly shown) [compound 49], the log p under setting [1] is 2,61 and the log p under setting [2] was 2,64. For the compound `CCS(=O)(=O)C[C@H](C)NC(=O)c1c(I)cccc1C(=O)Nc1ccc(C(C(F)F)C(F)(F)F)cc1Br` (stereo partly shown) [compound 46], the log p reads like this: under setting [1], 2,87; under setting [2], 2,92.

As for `CCS(=O)(=O)C[C@H](C)NC(=O)c1c(I)cccc1C(=O)Nc1ccc(C(F)(C(F)(F)F)C(F)(F)F)c(F)c1C` [compound 21], under setting [1], the log p was 3,47^[a].
